# Assay results published in patent publication US6376510B1, “Neuromuscular relaxants” (Newlaxant LLC, priority 1997, dated 2002).
# Columns and labels:
# [1] = test system: anesthetized rats (evoked responses of anterior tibial muscle); assay: In vivo neuromuscular block and cardiovascular side effects, anesthetized rat (Example 8, Table 3); conditions: for ED50: Rattus norvegicus, iv; for VB (vagal block) / ΔBP (change in arterial blood pressure) / ΔH (change in heart rate) / RI (recovery index) / Onset: rat; for VB (vagal block) / ΔBP (change in arterial blood pressure) / ΔH (change in heart rate): at 80-85% neuromuscular blocking dose; for RI (recovery index): spontaneous recovery, 25-75% neuromuscular response; for Onset: time to 80-85% neuromuscular block
# Source text: The neuromuscular blocking activity and other effects (e.g. cardiovascular side effects) of selected agents were investigated on several different experimental animals. Justification for this approach lies in the commonly known fact that the pharmacodynamic and pharmacokinetic properties of these agents are markedly variable from species to species. Therefore, the most important aspects of the projected therapeutic utility of these agents, e.g., neuromuscular blocking potency, onset and duration of action, and side effects cannot be ascertained in “in vitro” preparations or by using only one species of animals.
# a) Adult, male albino rats were anesthetized with pentobarbital injected intraperitoneally. The trachea was cannulated for artificial respiration via a small animal respirator. The carotid artery was cannulated for recording blood pressure via a transducer and heart rate by a cardiotachograph on a polygraph. One external jugular vein was cannulated for i.v. drug administration. Neuromuscular function was monitored by electromyography, recording evoked responses from the anterior tibial muscle as a result of supramaximal nerve stimuli consisting of single or “train-of-four” rectangular pulses of 0.1-0.2 msec duration every 10-12 seconds, delivered to the sciatic or common peroneal nerve by a laboratory nerve stimulator. Another mode of stimulation included repeated single stimuli delivered at 0.1 Hz or 1 Hz. […] The agents were dissolved in physiologic saline and injected intravenously at appropriate time intervals. The intensity, onset, and duration of neuromuscular block and its type were determined with each agent. Through administering several doses, the doses corresponding to 50%, 80% and 90% neuromuscular block were determined. All agents were compared with selected standard neuromuscular blocking compounds, e.g. succinylcholine, pancuronium, mivacurium, or rocuronium.
# Onset=time in minutes to 80-85% neuromuscular block.
# RI=recovery index, minutes, spontaneous recovery, 25-75% neuromuscular response.
# VB=vagal block, %, at 80-85% neuromuscular blocking dose.
# ΔHR=change in heart rate, %, at 80-85% neuromuscular blocking dose.
# ΔBP=change in arterial blood pressure, %, at 80-85% neuromuscular blocking dose.
# [2] = test system: rabbits; assay: In vivo neuromuscular block and cardiovascular side effects, rabbit (Example 8, Table 7); conditions: for ED50: Oryctolagus cuniculus, intravenous dose causing 50% neuromuscular block, read-out: ED50; for ΔBP (change in arterial blood pressure) / ΔH (change in heart rate): at 80-85% neuromuscular blocking dose; for RI (recovery index): spontaneous recovery, 25-75% neuromuscular response; for Onset: time to 80-85% neuromuscular block
# [3] = test system: anesthetized juvenile pigs; assay: animal or person; assay type: in vivo; conditions: pig; for ED50: Sus scrofa, intravenous dose causing 50% neuromuscular block, read-out: ED50; for VB (vagal block) / ΔBP (change in arterial blood pressure) / ΔH (change in heart rate): at 80-85% neuromuscular blocking dose; for RI (recovery index): spontaneous recovery, 25-75% neuromuscular response; for Onset: time to 80-85% neuromuscular block
# Source text: Both electromyographic and mechanomyographic responses can be quantified.
# The techniques described under a) and b) were employed in other species as needed with the modification that juvenile pigs were initially anesthetized with inhalation of halothane (Table 5) and monkeys were initially sedated with intramuscular ketamine injections prior to inducing and maintaining general anesthesia using pentobarbital and propofol administered intravenously (Table 6).
Structure (SMILES),ED50 [1] [mg/kg],VB (vagal block) [1] [%],ΔBP (change in arterial blood pressure) [1] [%],ΔH (change in heart rate) [1] [%],RI (recovery index) [1] [min],Onset [1] [min],ED50 [2] [mg/kg],ΔBP (change in arterial blood pressure) [2] [%],ΔH (change in heart rate) [2] [%],RI (recovery index) [2] [min],Onset [2] [min],ED50 [3] [mg/kg],VB (vagal block) [3] [%],ΔBP (change in arterial blood pressure) [3] [%],ΔH (change in heart rate) [3] [%],RI (recovery index) [3] [min],Onset [3] [min]
"COc1cc(C[N+]2(C)[C@@H]3CC[C@H]2C[C@@H](OC(=O)C2CCC2C(=O)O[C@H]2C[C@H]4CC[C@@H](C2)[N+]4(C)Cc2cc(OC)c(OC(C)=O)c(OC)c2)C3)cc(OC)c1OC(C)=O.[Br-].[Br-] (stereo partly drawn) [bis[N-(4-acetoxy-3,5-dimethoxybenzyl)tropanium-3α-yl]cyclobutane-1,2-dicarboxylate dibromide]",0.367,20,0,0,0.45,0.4,0.298,0,0,0.55,0.5,–,–,–,–,–,–
"C[N+]1(CC=Cc2ccccc2)[C@@H]2CC[C@H]1C[C@@H](OC(=O)CCCCCCCCCCC(=O)O[C@H]1C[C@H]3CC[C@@H](C1)[N+]3(C)CC=Cc1ccccc1)C2.[Br-].[Br-] (stereo partly drawn) [bis[N-(3-(phenyl)prop-2-enyl)tropanium-3α-yl]1,10-decanedicarboxylate dibromide, reference compound]",–,–,–,–,–,–,–,–,–,–,–,0.17,27,−10,0,6.4,1.60
"C[N+]1(Cc2ccccc2)[C@@H]2CC[C@H]1C[C@@H](OC(=O)CCCCCCCCC(=O)O[C@H]1C[C@H]3CC[C@@H](C1)[N+]3(C)Cc1ccccc1)C2.[Br-].[Br-] (stereo partly drawn) [bis[N-benzyltropanium-3α-yl]sebacate dibromide, reference compound]",–,–,–,–,–,–,0.075,0,0,6,2.3,–,–,–,–,–,–
"C[N+]1(Cc2ccccc2)[C@@H]2CC[C@H]1C[C@@H](OC(=O)CCCC(=O)O[C@H]1C[C@H]3CC[C@@H](C1)[N+]3(C)Cc1ccccc1)C2.[Br-].[Br-] (stereo partly drawn) [bis[N-benzyltropanium-3α-yl]glutarate dibromide, reference compound]",5.5,100,−10,0,3.7,2.5,–,–,–,–,–,–,–,–,–,–,–
"CCCCC[N+]1(C)[C@@H]2CC[C@H]1C[C@@H](OC(=O)CCCCCCCCC(=O)O[C@H]1C[C@H]3CC[C@@H](C1)[N+]3(C)CCCCC)C2.[Br-].[Br-] (stereo partly drawn) [bis[N-(pentyl)tropanium-3α-yl]sebacate dibromide, reference compound]",–,–,–,–,–,–,–,–,–,–,–,0.3,50,0,0,6.9,2.00
"C[N+]1(Cc2ccccc2Br)[C@@H]2CC[C@H]1C[C@@H](OC(=O)CCCC(=O)O[C@H]1C[C@H]3CC[C@@H](C1)[N+]3(C)Cc1ccccc1Br)C2.[Br-].[Br-] (stereo partly drawn) [bis[N-(2-bromobenzyl)tropanium-3α-yl]glutarate dibromide, reference compound]",1.4,100,−9,0,3.6,2.3,–,–,–,–,–,–,–,–,–,–,–
"CC[N+]1(C)[C@@H]2CC[C@H]1C[C@@H](OC(=O)CCCCC(=O)O[C@H]1C[C@H]3CC[C@@H](C1)[N+]3(C)CC)C2.[I-].[I-] (stereo partly drawn) [bis[N-ethyltropanium-3α-yl]adipate diiodide, reference compound]",–,–,–,–,–,–,0.15,0,0,9,2.2,–,–,–,–,–,–
"C[N+]1(C)[C@@H]2CC[C@H]1C[C@@H](OC(=O)CCCC(=O)O[C@H]1C[C@H]3CC[C@@H](C1)[N+]3(C)C)C2.[I-].[I-] [bis[N-methyltropanium-3α-yl]glutarate diiodide, reference compound]",2,100,0,0,4.2,1.2,–,–,–,–,–,–,–,–,–,–,–
